In patent publication US11680298B2, “Method of identifying risk of cancer and therapeutic options” (Agency for Science, Technology and Research, priority 2016, dated 2023):
Each block holds one molecule with its values, some of them ahead of it.

Tests used:
EL12-58 PDX tumours = test: Neoadjuvant breast cancer PDX model of tumour recurrence; format: in vivo, NOD-SCID mice; settings: after paclitaxel-induced regression and surgery; 20 mg/kg paclitaxel, 150 mg/kg pacritinib or both
JAK2 = target: T1, JAK2 (Homo sapiens, UniProt O60674); test: Western blot of phospho-JAK2 in breast cancer cells and patient-derived tumourspheres; format: cell-based; settings: patient-derived tumourspheres, IL-1 treatment
T1 construct: endogenous in cells; host or cells: MB468 and MB231 cells; PDX-derived tumourspheres
T1 sequence (O60674 whole entry): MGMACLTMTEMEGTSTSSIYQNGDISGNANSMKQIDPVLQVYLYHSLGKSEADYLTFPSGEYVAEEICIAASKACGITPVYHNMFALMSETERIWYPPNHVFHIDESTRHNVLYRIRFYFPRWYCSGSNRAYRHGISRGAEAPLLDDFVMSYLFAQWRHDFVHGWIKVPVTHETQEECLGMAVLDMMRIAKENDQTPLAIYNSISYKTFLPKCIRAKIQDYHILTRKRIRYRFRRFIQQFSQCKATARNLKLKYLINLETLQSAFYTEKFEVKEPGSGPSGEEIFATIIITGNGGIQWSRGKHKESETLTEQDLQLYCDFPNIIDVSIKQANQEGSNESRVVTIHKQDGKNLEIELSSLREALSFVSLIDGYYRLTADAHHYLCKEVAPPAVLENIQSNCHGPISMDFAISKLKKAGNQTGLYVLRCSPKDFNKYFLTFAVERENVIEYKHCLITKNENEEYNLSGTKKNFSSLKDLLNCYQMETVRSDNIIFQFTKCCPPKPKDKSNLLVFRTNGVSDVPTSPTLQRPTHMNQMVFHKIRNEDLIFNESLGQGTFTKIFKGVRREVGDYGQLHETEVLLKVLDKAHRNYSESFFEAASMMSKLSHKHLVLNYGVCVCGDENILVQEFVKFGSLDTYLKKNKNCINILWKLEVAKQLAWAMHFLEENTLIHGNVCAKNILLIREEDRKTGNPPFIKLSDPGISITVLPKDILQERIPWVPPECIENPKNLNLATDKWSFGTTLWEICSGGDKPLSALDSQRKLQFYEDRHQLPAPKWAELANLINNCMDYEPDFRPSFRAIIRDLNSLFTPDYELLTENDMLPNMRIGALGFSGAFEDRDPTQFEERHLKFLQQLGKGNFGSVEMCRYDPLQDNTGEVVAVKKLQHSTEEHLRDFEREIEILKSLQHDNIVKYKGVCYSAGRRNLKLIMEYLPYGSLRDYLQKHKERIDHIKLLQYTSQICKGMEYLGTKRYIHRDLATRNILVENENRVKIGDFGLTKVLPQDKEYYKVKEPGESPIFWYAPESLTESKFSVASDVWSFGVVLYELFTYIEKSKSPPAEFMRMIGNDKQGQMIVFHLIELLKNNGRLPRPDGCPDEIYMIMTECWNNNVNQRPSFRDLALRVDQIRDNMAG
Excerpt: (§1) All immunoblots shown in this specification represent at least two independent experiments. In brief, cells were washed with PBS and lysed in RIPA buffer supplemented with protease and phosphatase inhibitors and further sonicated using an XL2000 Microson Ultrasonice Processor (Misonix). Equal amounts of protein extract were separated on SDS-polyacrylamided gels and transferred to PVDF membranes. Membranes were further blocked with 5% milk or BSA, and then probed with the following antibodies: anti-IRAK1 was purchased from Santa Cruz Biotechnology (Santa Cruz, Calif.; sc-7883), anti-phospho-IRAK1 (T209) was purchased from Assay Biotech (Sunnyvale, Calif.; A1074), anti-JAK2 (Danvers, Mass.; #3230) and anti-phospho-JAK2 ([…]) (Danvers, Mass.: #3774) were purchased from Cell Signaling Technology, anti-actin was purchased from Sigma Aldrich CA; A5441). For protein extraction of xenograft tumours, snap frozen samples were resuspended in RIPA buffer supplemented with protease and phosphatase inhibitors and homogenized with QIAGEN TissueLyzer II as described by the manufacturer, followed by immunoblotting as described above.

IRAK1 [1] = target: T2, IRAK1 (Homo sapiens, UniProt P51617); test: Western blot of phospho-IRAK1 in breast cancer cells and patient-derived tumourspheres; format: cell-based; parameters: endogenous in cells; host or cells: MB468 and MB231 cells; PDX-derived tumourspheres
T2 sequence (P51617 whole entry): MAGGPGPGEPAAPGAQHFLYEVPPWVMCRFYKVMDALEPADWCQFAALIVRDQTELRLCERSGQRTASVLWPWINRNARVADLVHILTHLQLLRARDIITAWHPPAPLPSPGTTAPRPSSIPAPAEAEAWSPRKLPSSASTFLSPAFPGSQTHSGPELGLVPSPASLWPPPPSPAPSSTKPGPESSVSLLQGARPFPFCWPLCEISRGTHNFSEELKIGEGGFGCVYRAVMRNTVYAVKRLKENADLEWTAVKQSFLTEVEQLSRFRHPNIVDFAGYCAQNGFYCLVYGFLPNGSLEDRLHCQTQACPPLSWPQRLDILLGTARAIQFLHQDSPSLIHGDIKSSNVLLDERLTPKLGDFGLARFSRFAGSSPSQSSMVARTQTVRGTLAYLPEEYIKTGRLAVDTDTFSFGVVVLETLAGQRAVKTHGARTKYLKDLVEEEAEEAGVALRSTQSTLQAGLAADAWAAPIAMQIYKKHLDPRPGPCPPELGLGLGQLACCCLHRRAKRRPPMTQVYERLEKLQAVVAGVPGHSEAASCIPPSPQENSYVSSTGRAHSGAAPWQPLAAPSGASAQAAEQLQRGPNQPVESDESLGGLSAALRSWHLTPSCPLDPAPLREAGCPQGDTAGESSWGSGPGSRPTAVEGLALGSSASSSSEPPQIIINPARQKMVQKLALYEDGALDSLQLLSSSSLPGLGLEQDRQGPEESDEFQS
Experimental: Recombinant IL-1p (Cat no: 200-01B) was purchased from Peprotech (Rocky Hill, N.J.). Recombinant S100A7 (Cat no: pro-149), S100A8 (Cat no: pro-800) and S100A9 (Cat no: pro-814), were purchased from ProSpec (East Brunswick, N.J.). Cells were treated with recombinant proteins at stated concentration for 20 min before harvesting for western blot. Paclitaxel (Cat no: P-9600) was purchased from LC Lab (Woburn, Mass.).
as §1

[2] = system: tumourspheres from both cell lines and patient-derived samples; test: S100A8/S100A9 recombinant protein rescue of pacritinib-treated tumourspheres; format: cell-based, human; settings: recombinant protein 10 ng/ml added to culture medium; pacritinib 2.5 μM or 1 μM (method)
Experimental: (§2) Mammosphere Formation Assay PDX-derived tumoursphere cells were trypsinized and passed through 40 μm cell strainer to achieve single cell suspensions. 3×10^4 cells were seeded in 6-well ultra-low attachment plates (Corning, N.Y.; CLS3471) in serum-free DMEM/F12 supplemented with N2 and B27 (Gibco, Grand Island, N.Y.), 20 ng/ml epidermal growth factor (MACS, Auburn, Calif.), 20 ng/ml basic fibroblast growth factor (MACS, Auburn, Calif.), 0.2 μM Thiazovivin ([…] Technologies, Vancouver, BC) and penicillin/streptomycin (Gibco, Carlsbad, Calif.). For breast cancer cell lines and MCF10A cell line, 3×10^4 cells were seeded in 6-well ultra-low attachment plates in Mammocult medium (Stem Cell Technologies, Vancouver, BC, Canada), supplemented with fresh hydrocortisone (0.5 μg/ml) and heparin (1:500). Mammospheres were maintained at 37° C. with 5% CO2 and topped up with medium every 3 days. After 7-9 days, mammospheres were stained with INT (2-(4-iodophenyl)-3-(4-nitrophenyl)-5-phenyl-2H-tetrazolium chloride, Sigma-Aldrich) and quantified. Imaging and quantification were done using GelCount apparatus and associated software (Oxford Optronix, Abingdon, UK). […] Cell Proliferation Assay

[3] = system: K239S mutant cells (MB436, MB468); test: Tumoursphere formation of K239S mutant IRAK1 cells with recombinant protein rescue; format: cell-based; settings: recombinant protein added to culture medium of K239S mutant IRAK1 cells
Experimental: as §2, with “Proliferation Assay […]” for “Proliferation Assay”

MCF10A = test: Mammosphere formation assay, MCF10A; format: cell-based; settings: long-term treatment with recombinant protein for 10 days
Experimental: as §2

IRAK1 [4] = target: T2, IRAK1; test: Western blot of phospho-IRAK1 in breast cancer cells and patient-derived tumourspheres; format: cell-based; parameters: endogenous in cells; host or cells: MB468 and MB231 cells; PDX-derived tumourspheres; settings: MCF10A, long-term treatment with recombinant protein for 10 days
[5] = MB231 cells, recombinant protein as low as 1 ng/ml

Molecule: CC(=O)O[C@H]1C(=O)[C@@]2(C)[C@H]([C@H](OC(=O)c3ccccc3)[C@]3(O)C[C@H](OC(=O)[C@H](O)[C@@H](NC(=O)c4ccccc4)c4ccccc4)C(C)=C1C3(C)C)[C@]1(OC(C)=O)CO[C@@H]1C[C@@H]2O [paclitaxel]
tumour regrowth after surgical removal of residual tumour (EL12-58 PDX tumours): slowed down

JAK2 phosphorylation (JAK2): remarkably induced JAK2 phosphorylation
Molecule: IL-1p: Recombinant IL-1p (Cat no: 200-01B) purchased from Peprotech
IRAK1 phosphorylation (IRAK1 [1]; patient-derived tumourspheres, IL-1 treatment): did not have an obvious effect on IRAK1 phosphorylation

IRAK1 phosphorylation (IRAK1 [1]; [5]): able to induce IRAK1 phosphorylation
IRAK1 phosphorylation (IRAK1 [4]): increased IRAK1 phosphorylation
Molecule: S100A8: Recombinant S100A8 protein purchased from ProSpec (Cat no: pro-800)
rescue of pacritinib-induced tumoursphere growth inhibition [2]: effectively rescued pacritinib-induced growth inhibition
rescue of tumoursphere growth [3]: able to rescue the tumoursphere growth
mammosphere formation (MCF10A): increased mammosphere formation

IRAK1 phosphorylation (IRAK1 [1]; [5]): able to induce IRAK1 phosphorylation
IRAK1 phosphorylation (IRAK1 [4]): increased IRAK1 phosphorylation
Molecule: S100A9: Recombinant S100A9 protein purchased from ProSpec (Cat no: pro-814)
rescue of pacritinib-induced tumoursphere growth inhibition [2]: effectively rescued pacritinib-induced growth inhibition
rescue of tumoursphere growth [3]: able to rescue the tumoursphere growth
mammosphere formation (MCF10A): increased mammosphere formation

IRAK1 phosphorylation (IRAK1 [1]; [5]): able to induce IRAK1 phosphorylation
B1: S100A7: Recombinant S100A7 protein purchased from ProSpec (Cat no: pro-149) (protein, UniProt P31151 2-101, looked up)
Protein S100-A7: SNTQAERSIIGMIDMFHKYTRRDDKIEKPSLLTMMKENFPNFLSACDKKGTNYLADVFEKKDKNEDKKIDFSEFLSLLGDIATDYHKQSHGAAPCSGGSQ
